Test results taken from patent publication US8377913B2, “Vitamin D receptor activators and methods of making” (AbbVie Inc., priority 2007, dated 2013).

Columns and labels:
Assay type in all cases: cell-based
[1] = system: Thrombomodulin mRNA in human coronary artery smooth muscle cells (CASMC); test: Thrombomodulin mRNA in CASMC; conditions: for EC50: Homo sapiens
Description: (§1) Primary culture of human coronary artery smooth muscle cells (CASMC) (commercially available from Cambrex, Walkersville, Md.) were grown in smooth muscle growth medium SmGM-2 (commercially available from Lonza Bioscience) containing 5.5 mM glucose, 5% FBS, 50 μg/ml gentamicin, 50 ng/ml amphotericin-B, 5 μg/ml insulin, 2 ng/ml human recombinant fibroblast growth factor (hFGF), and 0.5 ng/ml human recombinant epidermal growth factor (hEGF) at 37° C. in a humidified 5% CO2-95% air atmosphere. Cells were grown to >80% confluence and used within five passages.
(§2) Real-time reverse transcription-PCR was performed with a MyiQ Real-Time PCR Detection System (BioRad, Hercules, Calif.). Each sample has a final volume of 25 μl containing 100 ng of cDNA, […] each of the forward and reverse PCR primers and […] of the TaqMan™ probe for the gene of interest (Applied Biosystems, Foster City, Calif.). Temperature conditions consisted of a step of 5 minutes at 95° C., followed by 40 cycles of 60° C. for 1 minute and 95° C. for 15 seconds. Data was collected during each extension phase of the PCR reaction and analyzed with the software package (BioRad, Hercules, Calif.). Threshold cycles were determined for each gene. […]

[2] = system: Thrombospondin mRNA in human coronary artery smooth muscle cells (CASMC); test: Thrombospondin mRNA in CASMC; conditions: for IC50: Homo sapiens
Description: as §1, §2

[3] = system: Renin mRNA in As4.1 cells; test: Renin mRNA in As4.1 cells transfected with pcDNA-hVDR (real-time RT-PCR)
Description: As4.1 cells (ATCC, Manassas, Va.) were cultured in Dulbecco's Modified Eagle Medium DMEM (commercially available from Invitrogen, Carlsbad, Calif.) with 10% fetal bovine serum at 37° C. in a humidified 5% CO2-95% air atmosphere. C3;ells were transfected with the pcDNA-hVDR plasmid (provided by Yan Chun Li, University of Chicago) by LIPOFECTAMINE™ 2000 (Invitrogen, Carlsbad, Calif.). siRNA was transfected with the pcDNA-hVDR plasmid by LIPOFECTAMINE™ 2000 according to the manufacturer's protocol. Twenty-four hours after transfection, cells were treated with test agents.
Real-time reverse transcription-PCR was performed with a MyiQ Real-time PCR Detection System (commercially available from BioRad, Hercules, Calif.). […] TaqMan™ probes that were 5′ labeled with the reporter 6-carboxyfluorescein (FAM) and 3′ labeled with the quencher tetramethylrhodamine (TAMRA) were used and the primer and probe sets were obtained from Applied Biosystems (Foster City, Calif.). Temperature conditions consisted of a step of 5 minutes at 95° C., followed by 45 cycles of 60° C. for 1 minute and 95° C. for 15 seconds. Data was collected during each extension phase of the PCR reaction and analyzed with the accompanying software package (BioRad, Hercules, Calif.). Threshold cycles were determined for each gene.

[4] = system: Human promyelocytic leukemia (HL60) cells; test: HL-60 Differentiation; conditions: HL-60, 96 h, four days incubation, NBT, absorbance 570 nm
Description: Human promyelocytic leukemia (HL60) cells were obtained from the American Type Culture Collection (ATCC Cat. # CCL-240, Manassas, Va.). Cells were maintained in RPMI 1640 medium (commercially available from Invitrogen, Carlsbad, Calif.) containing 10% fetal bovine serum (commercially available from Invitrogen, Carlsbad, Calif.) at 37° C. with 5% CO2. Cells were passaged weekly and were not allowed to become >90% confluent. For the assay, cells were plated at 5×10^5 cells per well in 200 uL media. Test compounds were diluted in media in concentrations between 10^−6-10^−10 M and then added to the appropriate wells. Cells were then incubated for four days at 37° C. in 5% CO2 atmosphere. After incubation, media was aspirated from each well and 75 uL of NBT solution (nitroblue tetrazolinium: 200 ng/mL PMA (phorbol 12-myrystate 13-acetate) and 2 mg/ml NBT (nitroblue tetrazolium) in distilled H2O) was added to each well followed by further incubation for 2 hours at 37° C. Following incubation, 150 uL lysis buffer (225 mL dimethylformamide, 67.5 g SDS). PMA stock solution (2 mg/ml in ethanol) was added to each well and the plate was allowed to sit at room temperature for 4 hours. HL-60 cell differentiation was assayed, Effect of each compound on cell growth was examined as a function of time; absorbance in each well was measured at 570 nm.

[5] = system: PAI-1 mRNA in human coronary artery smooth muscle cells (CASMC); test: PAI-1 mRNA in CASMC; conditions: for IC50: Homo sapiens
Description: as §1, §2

[6] = system: VDR (VDRE-luciferase-reporter construct); test: VDRE Reporter Gene Assay in HEK cells with stable expression of VDR; conditions: Homo sapiens, HEK293, 24 hours
Description: Compound activity was also assessed by looking at a Vitamin D Response Element (VDRE) reporter gene assay, Human Embryonic Kidney cells (HEK cells) with a stable expression of VDR were cultured in 96-well plates at ˜4×10^5 cells/mL (100 μL/well) in DMEM medium containing 10% fetal calf serum. Cells were transfected with 0.2 μg per well of a VDRE-luciferase-reporter construct (from Y. Li, University of Chicago) and then treated with test agents at indicated concentrations for 24 hours. The luciferase activity was then measured following the manufacturer's instructions (Promega, Madison, Wis.).

Compound | Thrombomodulin mRNA in CASMC EC50 [1] | IC50 [2] | IC50 [3] | EC50 [4] | PAI-1 mRNA in CASMC IC50 [5] | EC50 [6] | EC50 [1] | IC50 [5] | Renin mRNA in AS4.1 IC50 [3] | Thrombospondin mRNA in CASMC IC50 [2]
C=C1[C@H](O)CC(=C/C=C2\CCC[C@]3(C)[C@@H]([C@H](C)OCCC(C)(C)O)CC[C@@H]23)C[C@H]1O [Example 8, (1R,3R,7E,17β)-17-[(1S)-1-(3-hydroxy-3-methylbutoxy)ethyl]-2-methylene-9,10-secoestra-5,7-diene-1,3-diol] | – | 0.05 nM | 0.3 nM | 31.5 nM | – | < 0.01 nM | 39.3 nM | 0.02 nM | – | –
CC(C)[C@@H](C)CC[C@@H](C)[C@H]1CC[C@H]2/C(=C/C=C3C[C@@H](O)C[C@H](O)C3)CCC[C@]12C [Example 9, (1R,3R,7E)-17-[(1R,4S)-1,4,5-trimethylhexyl]-9,10-secoestra-5,7-diene-1,3-diol] | – | 0.3 nM | – | 434 nM | – | > 10000 nM | 0.1 nM | 0.1 nM | inactive | –
C=C1/C(=C\C=C2/CCC[C@]3(C)[C@@H]([C@H](C)C(C[C@@H](C)C(C)(C)OC)OC)CC[C@@H]23)C[C@@H](O)C[C@@H]1O (stereo partly drawn) [Example 10, (1S,3R,5Z,7E,24R)-22,25-dimethoxy-9,1 0-secoergosta-5,7,10-triene-1,3-diol] | – | 0.01 nM | 3.9 nM | 621 nM | – | 150 nM | 0.2 nM | 0.04 nM | – | –
COC(C[C@@H](C)C(C)(C)OC)[C@@H](C)[C@H]1CC[C@H]2/C(=C/C=C3C[C@@H](O)C[C@H](O)C3)CCC[C@]12C (stereo partly drawn) [Example 11, (1R,3R,7E,17β)-17-[(1S,4R)-2,5-dimethoxy-1,4,5-trimethylhexyl]-9,10-secoestra-5,7-diene-1,3-diol] | – | 0.01 nM | 0.002 nM | 310 nM | – | 182 nM | 28.4 nM | 0.01 nM | – | –
C=C1[C@H](O)C/C(=C/C=C2\CCC[C@]3(C)[C@@H]([C@H](C)CCCC(C)(C)O)CC[C@@H]23)C[C@@H]1F [Example 13, (1R,3S,5Z,7E,17β)-3-fluoro-17-[(1R)-5-hydroxy-1,5-dimethylhexyl]-2-methylene-9,10-secoestra-5,7-dien-1-ol] | – | 0.03 nM | 0.9 nM | 52 nM | – | 276 nM | 80.2 nM | 0.01 nM | – | –
C=C1[C@H](CO)C/C(=C\C=C2/CCC[C@]3(C)[C@@H]([C@H](C)CCCC(C)(C)O)CC[C@@H]23)C[C@H]1O [Example 16, (1R,3R,5E,7E,17β)-17-[(1R)-5-hydroxy-1,5-dimethylhexyl]-3-(hydroxymethyl)-2-methylene-9,10-secoestra-5,7-dien-1-ol] | – | – | 14.7 nM | 43 nM | – | 71.7 nM | – | – | – | –
C=C1[C@H](CO)C/C(=C\C=C2/CCC[C@]3(C)[C@@H]([C@H](C)OCCC(C)(C)O)CC[C@@H]23)C[C@H]1O [Example 17, (1R,3R,5E,7E,17β)-3-(hydroxymethyl)-17-[(1S)-1-(3-hydroxy-3-methylbutoxy)ethyl]-2-methylene-9,10-secoestra-5,7-dien-1-ol] | – | – | 2.2 nM | 92.5 nM | – | 153 nM | – | – | – | –

Now those with a lower EC50 [4], led by results:

Thrombomodulin mRNA in CASMC EC50 [1] | IC50 [2] | IC50 [3] | EC50 [4] | PAI-1 mRNA in CASMC IC50 [5] | EC50 [6] | EC50 [1] | IC50 [5] | Renin mRNA in AS4.1 IC50 [3] | Thrombospondin mRNA in CASMC IC50 [2] | Compound
inactive | 1.3 nM | 18.6 nM | 12 nM | inactive | 1.3 nM | – | – | – | – | C=C1[C@H](O)CC(=C/C=C2\CCC[C@]3(C)[C@@H]([C@H](C)COC(=O)C(C)(C)OC(C)=O)CC[C@@H]23)C[C@H]1O [Example 6, (2S)-2-[(1R,3R,7E,17β)-1,3-dihydroxy-2-methylene-9,10-secoestra-5,7-dien-17-yl]propyl 2-(acetyloxy)-2-methyl propanoate]
– | 0.1 nM | 0.1 nM | 12.5 nM | – | 12.2 nM | 0.6 nM | 0.1 nM | – | – | C=C1[C@H](O)CC(=C/C=C2\CCC[C@]3(C)[C@@H]([C@H](C)CC[C@H](C)C(C)C)CC[C@@H]23)C[C@H]1O [Example 7, (1R,3R,7E)-2-methylene-17-[(1R,4S)-1,4,5-trimethylhexyl]-9,10-secoestra-5,7-diene-1,3-diol]
– | 0.02 nM | 0.2 nM | 0.2 nM | – | 16.9 nM | 0.1 nM | 11.5 nM | – | – | C=C1[C@H](O)CC(=C/C=C2\CCC[C@]3(C)[C@@H]([C@H](C)COc4ccccc4)CC[C@@H]23)C[C@H]1O [Example 12, (1R,3R,7E,17β)-2-methylene-17-[(1S)-1-methyl-2-phenoxyethyl]-9,10-secoestra-5,7-diene-1,3-diol]
– | 0.02 nM | 0.03 nM | 9 nM | – | 0.6 nM | 5.1 nM | 0.04 nM | – | – | C=C1[C@H](O)CC(=C/C=C2\CCC[C@]3(C)[C@@H]([C@H](C)COC(=O)C(C)(C)O)CC[C@@H]23)C[C@H]1O [Example 14, (2S)-2-[(1R,3R,7E,17β)-1,3-dihydroxy-2-methylene-9,10-secoestra-5,7-dien-17-yl]propyl 2-hydroxy-2-methylpropanoate]
– | – | 0.04 nM | 1.2 nM | – | 0.4 nM | 10.7 nM | 0.01 nM | – | inactive | C[C@H](CC[C@@H](C)C(C)(C)O)[C@H]1CC[C@H]2/C(=C/C=C3C[C@@H](O)C[C@H](O)C3)CCC[C@]12C [Example 15, (1R,3R,7E,17β)-17-[(1R,4R)-5-hydroxy-1,4,5-trimethylhexyl]-9,10-secoestra-5,7-diene-1,3-diol]
– | – | 0.1 nM | 10 nM | – | 11.3 nM | – | – | – | – | C=C1[C@H](O)C/C(=C\C=C2/CCC[C@]3(C)[C@@H]([C@H](C)CCCC(C)(C)O)CC[C@@H]23)C[C@@H]1F [Example 18, (1R,3S,5E,7E,17β)-3-fluoro-17-[(1R)-5-hydroxy-1,5-dimethylhexyl]-2-methylene-9,10-secoestra-5,7-dien-1-ol]
